{
  "source": "patent US6770799B2",
  "about": "“Expression of recombinant human acetylcholinesterase in transgenic plants” (priority 2000, dated 2004)",
  "molecules": {"B1": {"name": "plant-derived hAChE (protein, UniProt P22303 32-614, looked up)", "Acetylcholinesterase": "EGREDAELLVTVRGGRLRGIRLKTPGGPVSAFLGIPFAEPPMGPRRFLPPEPKQPWSGVVDATTFQSVCYQYVDTLYPGFEGTEMWNPNRELSEDCLYLNVWTPYPRPTSPTPVLVWIYGGGFYSGASSLDVYDGRFLVQAERTVLVSMNYRVGAFGFLALPGSREAPGNVGLLDQRLALQWVQENVAAFGGDPTSVTLFGESAGAASVGMHLLSPPSRGLFHRAVLQSGAPNGPWATVGMGEARRRATQLAHLVGCPPGGTGGNDTELVACLRTRPAQVLVNHEWHVLPQESVFRFSFVPVVDGDFLSDTPEALINAGDFHGLQVLVGVVKDEGSYFLVYGAPGFSKDNESLISRAEFLAGVRVGVPQVSDLAAEAVVLHYTDWLHPEDPARLREALSDVVGDHNVVCPVAQLAGRLAAQGARVYAYVFEHRASTLSWPLWMGVPHGYEIEFIFGIPLDPSRNYTAEEKIFAQRLMRYWANFARTGDPNEPRDPKAPQWPPYTAGAQQYVSLDLRPLEVRRGLRAQACAFWNRFLPKLLSATDTLDEAERQWKAEFHRWSSYMVHWKNQFDHYSKQDRCSDL", "modifications": "plant-expressed"}},
  "key": {"[1]": {"biological_target": "T1, human AChE derived from erythrocytes (Homo sapiens, UniProt P22303)", "T1 construct": "a commercially available preparation of AChE from human erythrocytes; purchased; host or cells: human erythrocytes", "T1 sequence (P22303 32-617 isoform P22303-2 limits assumed)": "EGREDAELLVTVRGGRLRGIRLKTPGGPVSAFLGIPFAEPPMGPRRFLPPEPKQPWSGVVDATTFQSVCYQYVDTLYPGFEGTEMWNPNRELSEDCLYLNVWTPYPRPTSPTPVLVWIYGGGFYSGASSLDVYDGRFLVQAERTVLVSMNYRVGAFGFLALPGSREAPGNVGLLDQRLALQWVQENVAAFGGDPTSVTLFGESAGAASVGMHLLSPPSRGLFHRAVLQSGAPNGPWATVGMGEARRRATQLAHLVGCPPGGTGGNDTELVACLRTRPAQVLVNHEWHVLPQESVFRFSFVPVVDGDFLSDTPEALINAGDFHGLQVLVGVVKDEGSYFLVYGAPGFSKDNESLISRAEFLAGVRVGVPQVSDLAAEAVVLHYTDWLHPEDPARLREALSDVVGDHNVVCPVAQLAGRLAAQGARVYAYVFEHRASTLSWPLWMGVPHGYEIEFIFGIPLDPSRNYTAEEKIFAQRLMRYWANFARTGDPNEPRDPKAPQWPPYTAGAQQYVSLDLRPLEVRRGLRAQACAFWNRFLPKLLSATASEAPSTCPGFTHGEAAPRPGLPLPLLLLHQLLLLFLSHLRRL", "experiment": "Inhibition of AChE from human erythrocytes (Ellman assay)", "assay_type": "biochemical"}, "[2]": {"biological_target": "T2, plant derived recombinant AChE (rAChE) (Homo sapiens, UniProt P22303)", "T2 construct": "We expressed the engineered AChE-E4 form, encoded by exons 2-4 of the human gene; made in house; host or cells: transgenic tomato (Lycopersicum esculentum cv. Micro-Tom), cleared leaf extracts", "experiment": "Inhibition of plant-derived recombinant AChE (Ellman assay)", "assay_type": "biochemical", "settings": "for inhibition of plant derived rAChE: 1 mM acetylthiocholine"}, "[3]": {"experiment": "Km determination of plant-derived hAChE (Ellman assay, Lineweaver-Burk analysis)", "assay_type": "biochemical", "settings": "acetylthiocholine 0.05-50 mM; four expressing lines", "quoted_text": "Scaled-down microtiter plate Ellman assays were performed, according to standard methods, which are well known in the art. […] At the end of the 30 minute incubation period, 100 μl of 1 mM 5-5′-dithio-bis(2-nitrobenzoate) (Ellman's reagent) and 2 mM acetylthiocholine in assay buffer was added. Hydrolysis was monitored by measuring optical density at 405 nm at 5 minute intervals for 30 minutes, using a microtiter plate spectrophotometer, plotted against time, and initial rates were calculated from the slope of the linear portion of the graph. Net hydrolysis rates were calculated by subtracting the rates measured in the presence of BW284c15 from those obtained in its absence. To determine the Km, the concentration of the acetylthiocholine substrate in the Ellman's reagent was varied in the range of 0.05-50 mM."}, "[4]": {"experiment": "Heat and storage stability of AChE activity in crude leaf extracts", "assay_type": "physicochemical", "experimental": "To evaluate the heat stability of the enzyme, plant extracts were incubated for 30 minutes at the indicated temperatures and then assayed as described above. Stability of the enzymatic activity was determined at 4 degrees C. and at 25 degrees C. by incubating plant extracts at the respective temperatures and assaying samples at the indicated time points.\nThe plant-derived hAChE in total soluble protein extracts retained 50% of its initial activity after incubation at 42 degrees for at least 30 minutes (FIG. 5A). Crude leaf extracts were incubated at the indicated temperatures for 30 minutes and then subjected to Ellman's AChE assay. […] The activity was very stable at 4 degrees C., with only 20% loss after 24 hours (FIG. 5B). Crude leaf extracts were incubated at 4 degrees C. or at 25 degrees C. for the indicated time periods and then assayed for AChE activity."}},
  "data": [
    {"molecule": "CC(C)NP(=O)(NC(C)C)OP(=O)(NC(C)C)NC(C)C", "note": "[Iso-OMPA, tetraisopropyl pyrophosphoramide]", "values": [
      {"measurement": "inhibition of erythrocyte-derived enzyme", "setting": "[1]; at 10 mM", "value": "only partial inhibition"},
      {"measurement": "effect on erythrocyte-derived enzyme", "setting": "[1]; up to 100 μM", "value": "no effect"},
      {"measurement": "inhibition of plant-derived enzyme", "setting": "[2]; at 10 mM", "value": "only partial inhibition"},
      {"measurement": "effect on plant-derived enzyme", "setting": "[2]; up to 100 μM", "value": "no effect"}
    ]},
    {"molecule": "O=S(=O)(F)Cc1ccccc1", "note": "[PMSF, phehylmethylsulfonyl fluoride]", "values": [
      {"measurement": "inhibition of plant derived rAChE", "setting": "[2]", "value": "can inhibit"}
    ]},
    {"molecule": "CN(C)C(=O)Oc1cccc([N+](C)(C)C)c1", "note": "[neostigmine]", "values": [
      {"measurement": "inhibition of plant derived rAChE", "setting": "[2]", "value": "can inhibit"}
    ]},
    {"molecule": "CCOP(=O)(OCC)Oc1ccc([N+](=O)[O-])cc1", "note": "[paraoxon, diethyl p-nitrophenyl phosphate]", "values": [
      {"measurement": "susceptibility of plant-derived E4 enzyme relative to equivalent recombinant enzyme from transgenic mice", "setting": "[2]", "value": "somewhat less susceptible"},
      {"measurement": "inhibition of plant derived rAChE", "setting": "[2]", "value": "can inhibit"}
    ]},
    {"molecule": "B1", "values": [
      {"measurement": "Km", "setting": "[3]", "value": "440 ± 100", "unit": "µM"},
      {"measurement": "loss of AChE activity", "setting": "[4]; 4 degrees C., after 24 hours", "value": 20, "unit": "%"},
      {"measurement": "initial activity retained", "setting": "[4]; 42 degrees, at least 30 minutes, total soluble protein extract", "value": 50, "unit": "%"},
      {"measurement": "residual AChE activity", "setting": "[4]; room temperature (~25 degrees C.), after 25 hours", "value": 20, "unit": "%"}
    ]}
  ]
}
